Measurements from publication PMC2880208 (Cancer research, 2010).
Where two headings read alike, the source gives them in different places.

How the values were obtained:
[1] = cited from earlier work
[2] = subcutaneous glioma xenografts, for 8 hours after a single oral dose of 55 mg/kg; cited from earlier work
[3] = system: MT330 cells; test: Intracellular accumulation of topotecan in vitro; assay type: cell-based, human; details: topotecan 0.1 μM, gefitinib 1 or 10 μM, dose-dependent
[4] = system: U87 cells; test: Intracellular accumulation of topotecan in vitro; assay type: cell-based, human; details: topotecan 0.1 μM, gefitinib 1 or 10 μM, dose-dependent
[5] = system: MT330 cells; test: Drug sensitivity; assay type: cell-based, human; details: MT330, gefitinib alone 0.001-50 μM
[6] = system: U87 cells; test: Drug sensitivity; assay type: cell-based, human; details: U87, gefitinib alone 0.001-50 μM
[7] = assay type: in vivo, CD1 athymic nude mice; details: CD1 athymic nude, mouse, iv, 4 mg/kg, 4 mg/kg i.v., mean ± SD
[8] = Intratumor distribution of topotecan; assay type: in vivo, CD1 nude mice; details: U87, TPT25: 25 μg/h topotecan, n=8
[9] = CD1 nude mice; cited from earlier work
[10] = Steady-state

SMILES | Effect of gefitinib on topotecan lactone plasma clearance [1] | Intratumor gefitinib concentration [2] | Enhancement of topotecan accumulation by gefitinib [3] | Enhancement of topotecan accumulation by gefitinib [4] | Effect on cell growth [5] | Effect on cell growth [6] | Kp ([7]; brain extracellular fluid (microdialysate) / plasma, Pbrain (brain ECF-to-plasma AUC ratio of unbound topotecan lactone), non-tumor-bearing CD1 nude mice, n=7) | Kp ([7]; Pcontralateral (contralateral brain ECF-to-plasma AUC ratio), U87 tumor-bearing mice, n=5) | Atot,tumor (total topotecan lactone in tumor homogenate at steady-state) [8] | Unbound fraction in plasma [9] | Css,plasma (unbound lactone) ([10]; 25 μg/h topotecan infusion, before gefitinib, n=15) | Css,tECF (unbound topotecan lactone in tumor ECF) ([10]; U87, 25 μg/h topotecan infusion, after gefitinib 200 mg/kg, n=10) | Css,tECF (unbound topotecan lactone in tumor ECF) ([10]; U87, 25 μg/h topotecan infusion, before gefitinib, n=10) | Css,tECF (unbound topotecan lactone in tumor ECF) ([10]; U87, TPT12-GEF: 12.5 μg/h topotecan after 200 mg/kg gefitinib, n=3)
COc1cc2ncnc(Nc3ccc(F)c(Cl)c3)c2cc1OCCCN1CCOCC1 [gefitinib] | halves | > 20 µM | ≤ 36% | ≤ 36% | did not substantially affect growth | did not substantially affect growth |  |  |  |  |  |  |  | 
CC[C@@]1(O)C(=O)OCc2c1cc1n(c2=O)Cc2cc3c(CN(C)C)c(O)ccc3nc2-1 [topotecan] |  |  |  |  |  |  | 0.3 ± 0.11 | 0.42 ± 0.11 | 47 ± 21 ng/mg tumor | 27% | 34 ± 8 ng/mL | 30 ± 12 ng/mL | 22 ± 10 ng/mL | 6.4 ± 0.8 ng/mL
